Experimental data: the NIST ThermoML archive (doi:10.1021/je800463k)

Test: mn = molality of the nth substance listed, in mol/kg
Settings: 101 kPa, Liquid; for mass density: Pycnometric method; for electrical conductivity: Frequency=0.001 MHz, Alternating current cell with electrodes; for speed of sound: Frequency=2 MHz

CC(=O)[O-].CC(=O)[O-].[Mg+2] [magnesium acetate] + CO
Settings	electrical conductivity [S/m]	mass density [kg/m3]	speed of sound [m/s]	viscosity [mPa·s]
299.65 K, m1 = 0.2422	–	803.36	–	–
300.15 K, m1 = 0.2003	–	800.18	–	–
300.2 K, m1 = 0.1402	–	796.94	–	–
300.25 K, m1 = 0.0646	–	791.69	–	–
300.35 K, m1 = 0.053	–	789.91	–	–
300.8 K, m1 = 0.0339	–	788.95	–	–
300.8 K, m1 = 0.3042	–	804.76	–	–
300.85 K, m1 = 0.014	–	787.26	–	–
300.85 K, m1 = 0.2668	–	803.07	–	–
301.1 K, m1 = 0.1112	–	794.25	–	–
301.5 K, m1 = 0.2422	–	801.62	–	–
301.9 K, m1 = 0.2003	–	798.5	–	–
301.9 K, m1 = 0.2192	–	799.27	–	–
301.95 K, m1 = 0.1798	–	798.03	–	–
302.05 K, m1 = 0.0646	–	790	–	–
302.15 K, m1 = 0.053	–	788.23	–	–
302.2 K, m1 = 0.0093	–	785.05	–	–
302.35 K, m1 = 0.0059	–	784.31	–	–
302.55 K, m1 = 0.3042	–	803.02	–	–
302.8 K, m1 = 0.2668	–	801.25	–	–
302.85 K, m1 = 0.1455	–	794.77	–	–
302.9 K, m1 = 0.1402	–	794.38	–	–
303.05 K, m1 = 0.0855	–	789.45	–	–
303.15 K, m1 = 0.0059	0.0362	783.47	1086.1	–
303.15 K, m1 = 0.0093	0.0586	–	1085.4	–
303.15 K, m1 = 0.014	–	–	–	0.5207
303.15 K, m1 = 0.018	0.0665	–	1086.1	0.5223
303.15 K, m1 = 0.0339	0.0868	–	–	0.5306
303.15 K, m1 = 0.053	0.1018	–	1087.5	–
303.15 K, m1 = 0.0646	0.1103	–	–	0.5393
303.15 K, m1 = 0.0855	0.122	–	1090.3	–
303.15 K, m1 = 0.1012	–	–	–	0.5622
303.15 K, m1 = 0.1024	0.1302	–	1093.3	–
303.15 K, m1 = 0.13	–	–	–	0.5718
303.15 K, m1 = 0.1402	0.1487	–	1092.4	0.5779
303.15 K, m1 = 0.1455	0.1524	–	1091.9	–
303.15 K, m1 = 0.17	–	–	–	0.5933
303.15 K, m1 = 0.1837	0.1617	–	1094.3	–
303.15 K, m1 = 0.2003	–	–	–	0.6048
303.15 K, m1 = 0.2192	–	–	1097.7	–
303.15 K, m1 = 0.2422	0.1746	–	1095.1	0.6232
303.15 K, m1 = 0.2453	–	–	–	0.6232
303.15 K, m1 = 0.2889	0.181	–	1098.2	0.642
303.15 K, m1 = 0.3042	–	–	1099.8	–
303.25 K, m1 = 0.2422	–	799.9	–	–
303.45 K, m1 = 0.0339	–	786.42	–	–
303.5 K, m1 = 0.014	–	784.74	–	–
303.65 K, m1 = 0.2192	–	797.61	–	–
303.75 K, m1 = 0.1112	–	791.73	–	–
303.95 K, m1 = 0.053	–	786.54	–	–
304.35 K, m1 = 0.3042	–	801.29	–	–
304.6 K, m1 = 0.1402	–	792.72	–	–
304.6 K, m1 = 0.1798	–	795.47	–	–
304.6 K, m1 = 0.2003	–	795.91	–	–
304.65 K, m1 = 0.0646	–	787.5	–	–
304.75 K, m1 = 0.0855	–	787.76	–	–
304.85 K, m1 = 0.2668	–	799.19	–	–
304.9 K, m1 = 0.0093	–	782.5	–	–
304.95 K, m1 = 0.0059	–	781.79	–	–
305.3 K, m1 = 0.014	–	783.09	–	–
305.5 K, m1 = 0.1455	–	792.24	–	–
305.65 K, m1 = 0.053	–	784.95	–	–
305.8 K, m1 = 0.2422	–	797.4	–	–
305.95 K, m1 = 0.0339	–	783.96	–	–
306.1 K, m1 = 0.3042	–	799.61	–	–
306.15 K, m1 = 0.2192	–	795.21	–	–
306.25 K, m1 = 0.1402	–	791.07	–	–
306.3 K, m1 = 0.1112	–	789.29	–	–
306.35 K, m1 = 0.2003	–	794.29	–	–
306.4 K, m1 = 0.1798	–	793.8	–	–
306.55 K, m1 = 0.0093	–	780.91	–	–
306.65 K, m1 = 0.0059	–	780.15	–	–
306.95 K, m1 = 0.2668	–	797.14	–	–
307.1 K, m1 = 0.0646	–	785.07	–	–
307.3 K, m1 = 0.053	–	783.25	–	–
307.3 K, m1 = 0.1455	–	790.54	–	–
307.35 K, m1 = 0.0855	–	785.26	–	–
307.5 K, m1 = 0.2422	–	795.76	–	–
307.7 K, m1 = 0.0339	–	782.34	–	–
307.7 K, m1 = 0.3042	–	797.95	–	–
307.75 K, m1 = 0.014	–	780.67	–	–
307.8 K, m1 = 0.2192	–	793.51	–	–
307.95 K, m1 = 0.1402	–	789.51	–	–
308.15 K, m1 = 0.0059	0.0369	–	1070.1	–
308.15 K, m1 = 0.0093	0.0592	–	1068.7	–
308.15 K, m1 = 0.014	–	–	–	0.4859
308.15 K, m1 = 0.018	0.0674	–	1071.5	0.4878
308.15 K, m1 = 0.0339	0.0879	–	–	0.496
308.15 K, m1 = 0.053	0.103	–	1075.1	–
308.15 K, m1 = 0.0646	0.112	–	–	0.5027
308.15 K, m1 = 0.0855	0.1232	–	1073.8	–
308.15 K, m1 = 0.1012	–	–	–	0.5234
308.15 K, m1 = 0.1024	0.1326	–	1077.1	–
308.15 K, m1 = 0.13	–	–	–	0.532
308.15 K, m1 = 0.1402	0.151	–	1078.5	0.5368
308.15 K, m1 = 0.1455	0.1557	–	1075.3	–
308.15 K, m1 = 0.17	–	–	–	0.5518
308.15 K, m1 = 0.1837	0.1631	–	1078.1	–
308.15 K, m1 = 0.2003	–	–	–	0.5625
308.15 K, m1 = 0.2192	–	–	1081.5	–
308.15 K, m1 = 0.2422	0.1782	–	1081.2	0.5782
308.15 K, m1 = 0.2453	–	–	–	0.578
308.15 K, m1 = 0.2889	0.1835	–	1082	0.5942
308.15 K, m1 = 0.3042	–	–	1083.6	–
308.2 K, m1 = 0.0093	–	779.23	–	–
308.7 K, m1 = 0.1112	–	786.87	–	–
308.9 K, m1 = 0.053	–	781.63	–	–
308.9 K, m1 = 0.1798	–	791.35	–	–
308.9 K, m1 = 0.2003	–	791.74	–	–
308.9 K, m1 = 0.2668	–	795.13	–	–
308.95 K, m1 = 0.0855	–	783.63	–	–
309.1 K, m1 = 0.0059	–	777.74	–	–
309.1 K, m1 = 0.1455	–	788.87	–	–
309.45 K, m1 = 0.2192	–	791.87	–	–
309.5 K, m1 = 0.3042	–	796.38	–	–
309.75 K, m1 = 0.0646	–	782.66	–	–
309.95 K, m1 = 0.2422	–	793.32	–	–
310.25 K, m1 = 0.014	–	778.28	–	–
310.25 K, m1 = 0.0339	–	779.95	–	–
310.5 K, m1 = 0.1402	–	787	–	–
310.65 K, m1 = 0.0093	–	776.87	–	–
311 K, m1 = 0.2668	–	793.11	–	–
311.2 K, m1 = 0.1112	–	784.4	–	–
311.2 K, m1 = 0.3042	–	794.7	–	–
311.4 K, m1 = 0.053	–	779.24	–	–
311.5 K, m1 = 0.0855	–	781.28	–	–
311.5 K, m1 = 0.1798	–	788.93	–	–
311.55 K, m1 = 0.0059	–	775.36	–	–
311.6 K, m1 = 0.1455	–	786.44	–	–
311.9 K, m1 = 0.2192	–	789.45	–	–
312.1 K, m1 = 0.1402	–	785.37	–	–
312.15 K, m1 = 0.0646	–	780.21	–	–
312.3 K, m1 = 0.0093	–	775.23	–	–
312.35 K, m1 = 0.2003	–	788.52	–	–
312.45 K, m1 = 0.2422	–	790.83	–	–
312.7 K, m1 = 0.0339	–	777.5	–	–
312.75 K, m1 = 0.014	–	775.84	–	–
312.9 K, m1 = 0.053	–	777.6	–	–
313.05 K, m1 = 0.0855	–	779.61	–	–
313.1 K, m1 = 0.2668	–	791.07	–	–
313.15 K, m1 = 0.0059	0.0376	–	1053.9	–
313.15 K, m1 = 0.0093	0.0598	–	1054.5	–
313.15 K, m1 = 0.014	–	–	–	0.4545
313.15 K, m1 = 0.018	0.0685	–	1055.7	0.4559
313.15 K, m1 = 0.0339	0.089	–	–	0.4632
313.15 K, m1 = 0.053	0.1041	–	1059.6	–
313.15 K, m1 = 0.0646	0.1137	–	–	0.4698
313.15 K, m1 = 0.0855	0.1243	–	1059	–
313.15 K, m1 = 0.1012	–	–	–	0.4881
313.15 K, m1 = 0.1024	0.1348	–	1061	–
313.15 K, m1 = 0.13	–	–	–	0.4956
313.15 K, m1 = 0.1402	0.1535	–	1062.7	0.5
313.15 K, m1 = 0.1455	0.1577	–	1059.1	–
313.15 K, m1 = 0.17	–	–	–	0.5145
313.15 K, m1 = 0.1837	0.166	–	1061.4	–
313.15 K, m1 = 0.2003	–	–	–	0.5239
313.15 K, m1 = 0.2192	–	–	1064.3	–
313.15 K, m1 = 0.2422	0.1817	–	1064.9	0.5375
313.15 K, m1 = 0.2453	–	–	–	0.5373
313.15 K, m1 = 0.2889	0.1868	–	1066.1	0.5513
313.15 K, m1 = 0.3042	–	–	1067.2	–
313.55 K, m1 = 0.3042	–	792.2	–	–
313.65 K, m1 = 0.1112	–	782	–	–
313.95 K, m1 = 0.1455	–	784.03	–	–
313.95 K, m1 = 0.1798	–	786.45	–	–
314.05 K, m1 = 0.0059	–	772.92	–	–
314.55 K, m1 = 0.1402	–	782.97	–	–
314.6 K, m1 = 0.0646	–	777.82	–	–
314.7 K, m1 = 0.0093	–	772.8	–	–
314.8 K, m1 = 0.2003	–	786.04	–	–
314.8 K, m1 = 0.2422	–	788.41	–	–
314.8 K, m1 = 0.2668	–	789.38	–	–
315.1 K, m1 = 0.0339	–	775.12	–	–
315.2 K, m1 = 0.014	–	773.47	–	–
315.4 K, m1 = 0.053	–	775.16	–	–
315.45 K, m1 = 0.0855	–	777.19	–	–
316.05 K, m1 = 0.3042	–	789.78	–	–
316.35 K, m1 = 0.0059	–	770.56	–	–
316.35 K, m1 = 0.1798	–	784.05	–	–
316.4 K, m1 = 0.1455	–	781.57	–	–
316.95 K, m1 = 0.0855	–	775.61	–	–
316.95 K, m1 = 0.2668	–	787.26	–	–
317 K, m1 = 0.0093	–	770.44	–	–
317.25 K, m1 = 0.2003	–	783.64	–	–
318.7 K, m1 = 0.1455	–	779.18	–	–
